Reference: article PMC10612255, “Discovery of novel 2,3,4,5-tetrahydrospiro[benzo[c]azepine-1,1’-cyclohexan]-5-ol derivatives as PARP-1 inhibitors” (BMC Chemistry, 2023)
Like-named read-outs stand apart in the source and are kept apart here.

Columns and labels:
HCT-116 = assay: MTT assay, anti-proliferative effect on HCT-116 cells; type: cell-based, human; conditions: read-out: IC50 HCT-116
Description: (§1) A549, OVCAR-3, HCT-116, and MCF-7 were purchased from American type culture collection (ATCC, USA). […] And all cell lines used in the experiment were tested for mycoplasma contamination every two weeks.
(§2) A549, OVCAR-3, HCT-116, and MCF-7 cells were seeded in 96-well plates, and then treated with target compounds for 72 h. Then, 20 µL MTT (5 mg/mL, in PBS) was added into each well, and dissolved in 150 µL DMSO after incubation for 4 h. Finally, the absorbance was measured with microplate reader (490 nm).

OVCAR-3 = assay: MTT assay, anti-proliferative effect on OVCAR-3 cells; type: cell-based, human; conditions: read-out: IC50 OVCAR-3
Description: as §1, §2

MCF-7 = assay: MTT assay, anti-proliferative effect on MCF-7 cells; type: cell-based, human; conditions: read-out: IC50 MCF-7
Description: as §1, §2

A549 = assay: MTT assay, anti-proliferative effect on A549 cells; type: cell-based, human; conditions: read-out: IC50 A549
Description: as §1, §2

Row | IC50 (HCT-116; HCT-116, human colon cancer cell line, MTT, 72 h, Mean ± SD) [µM] | IC50 (OVCAR-3; OVCAR-3, human ovarian cancer cell line, MTT, 72 h, Mean ± SD) [µM] | IC50 (MCF-7; MCF7, human breast cancer cell line, MTT, 72 h, Mean ± SD) [µM] | IC50 (A549; A549, human lung adenocarcinoma cell line, MTT, 72 h, Mean ± SD) [µM] | Structure (SMILES) | IC50 (HCT-116; Homo sapiens, HCT-116, 72 h) [µM] | IC50 (OVCAR-3; Homo sapiens, OVCAR-3, 72 h) [µM] | IC50 (MCF-7; Homo sapiens, MCF7, 72 h) [µM] | IC50 (A549; Homo sapiens, A549, 72 h) [µM] | melting point [°C]
1 |  |  |  |  | COc1ccccc1-n1cc(CN2CCC(O)c3ccccc3C23CCCCC3)nn1 (centres unmarked) [Compound 11k, 2-((1-(2-methoxyphenyl)-1 H-1,2,3-triazol-4-yl)methyl)-2,3,4,5-tetrahydrospiro[benzo[c]azepine-1,1’-cyclohexan]-5-ol] | 13.1 ± 2.03 | 10.5 ± 0.09 | 7.54 ± 1.05 | 12.6 ± 5.91 | 
2 |  |  |  |  | Oc1cccc(-n2cc(CN3CCC(O)c4ccccc4C34CCCCC4)nn2)c1 (centres unmarked) [Compound 11r, 2-((1-(3-hydroxyphenyl)-1 H-1,2,3-triazol-4-yl)methyl)-2,3,4,5-tetrahydrospiro[benzo[c]azepine-1,1’-cyclohexan]-5-ol] | 12.1 ± 0.98 | 3.9 ± 0.26 | > 50 | 11.9 ± 5.74 | 157.4 to 158.6
3 | 13.5 ± 0.17 | 2.41 ± 0.13 | 13 ± 0.28 | 4.91 ± 0.11 | CNCc1ccc(-c2[nH]c3cc(F)cc4c3c2CCNC4=O)cc1 [Rucaparib, reference compound] |  |  |  |  | 
4 |  |  |  |  | N#Cc1cccc(-n2cc(CN3CCC(O)c4ccccc4C34CCCCC4)nn2)c1 (centres unmarked) [Compound 11u, 3-(4-((5-hydroxy-4,5-dihydrospiro[benzo[c]azepine-1,1’-cyclohexan]-2(3 H)-yl)methyl)-1 H-1,2,3-triazol-1-yl)benzonitrile] | > 50 | > 50 | > 50 | > 50 | 
5 |  |  |  |  | OC1CCN(Cc2cn(-c3ccc(Cl)cc3)nn2)C2(CCCCC2)c2ccccc21 (centres unmarked) [Compound 11j, 2-((1-(4-chlorophenyl)-1 H-1,2,3-triazol-4-yl)methyl)-2,3,4,5-tetrahydrospiro[benzo[c]azepine-1,1’-cyclohexan]-5-ol] | 17.9 ± 1.95 | 5.79 ± 1.25 | 5.27 ± 0.92 | 18.8 ± 2.67 | 165.6 to 166.3
6 |  |  |  |  | N#Cc1ccccc1-n1cc(CN2CCC(O)c3ccccc3C23CCCCC3)nn1 (centres unmarked) [Compound 11t, 2-(4-((5-hydroxy-4,5-dihydrospiro[benzo[c]azepine-1,1’-cyclohexan]-2(3 H)-yl)methyl)-1 H-1,2,3-triazol-1-yl)benzonitrile] | > 50 | > 50 | > 50 | > 50 | 
7 |  |  |  |  | COc1ccc(-n2cc(CN3CCC(O)c4ccccc4C34CCCCC4)nn2)cc1 (centres unmarked) [Compound 11 m, 2-((1-(4-methoxyphenyl)-1 H-1,2,3-triazol-4-yl)methyl)-2,3,4,5-tetrahydrospiro[benzo[c]azepine-1,1’-cyclohexan]-5-ol] | 5.87 ± 0.54 | 6 ± 1.83 | 9.33 ± 1.33 | 8.7 ± 4.1 | 170.2 to 172.3
8 |  |  |  |  | Cc1ccccc1-n1cc(CN2CCC(O)c3ccccc3C23CCCCC3)nn1 (centres unmarked) [Compound 11e, 2-((1-(o-tolyl)-1 H-1,2,3-triazol-4-yl)methyl)-2,3,4,5-tetrahydrospiro[benzo[c]azepine-1,1’-cyclohexan]-5-ol] | 9.22 ± 4.57 | 7.95 ± 3.35 | 9.33 ± 4.08 | 15.6 ± 2.8 | 165.2 to 166
9 |  |  |  |  | Oc1ccc(-n2cc(CN3CCC(O)c4ccccc4C34CCCCC4)nn2)cc1 (centres unmarked) [Compound 11s, 2-((1-(4-hydroxyphenyl)-1 H-1,2,3-triazol-4-yl)methyl)-2,3,4,5-tetrahydrospiro[benzo[c]azepine-1,1’-cyclohexan]-5-ol] | > 50 | > 50 | > 50 | > 50 | 171.1 to 172.3
10 |  |  |  |  | OC1CCN(Cc2cn(-c3ccc(Br)cc3)nn2)C2(CCCCC2)c2ccccc21 (centres unmarked) [Compound 11p, 2-((1-(4-bromophenyl)-1 H-1,2,3-triazol-4-yl)methyl)-2,3,4,5-tetrahydrospiro[benzo[c]azepine-1,1’-cyclohexan]-5-ol] | 9.93 ± 3.01 | 12.7 ± 1.43 | 16.4 ± 4.37 | 9.58 ± 2.53 | 
11 |  |  |  |  | Cc1ccc(-n2cc(CN3CCC(O)c4ccccc4C34CCCCC4)nn2)cc1 (centres unmarked) [Compound 11 g, 2-((1-(p-tolyl)-1 H-1,2,3-triazol-4-yl)methyl)-2,3,4,5-tetrahydrospiro[benzo[c]azepine-1,1’-cyclohexan]-5-ol] | 9.81 ± 2.89 | 4.64 ± 0.99 | 7.96 ± 1.1 | 6.84 ± 1.68 | 164.3 to 165.2
